According to patent publication US20070031347A1, “Powdered Medicaments Containing A Tiotropium Salt and Salmeterol Xinafoate” (Boehringer Ingelheim Pharma GmbH & Co. KG, priority 2002, published 2007):

Assay: compacted bulk volume (tapped density, Ph. Eur. 4 / Carr packed bulk density)
Type: physicochemical
Method: The compacted bulk volume is determined by the test method of the European Pharmacopoeia 4 (2002): “apparent density after settling”/“density of settled product”, identical to the “tapped density”, measured in grams per millilitre) or as the “Carr packed bulk density” according to the ASTM standard (D6393-99, Standard Test Method for Bulk Solids Characterization by Carr Indices), measured in grams per cm^3. The compacted bulk volume is a measurement of the volume which is taken up by solid, comminuted materials after they have been compacted under defined conditions.

## OCc1cc(C(O)CNCCCCCCOCCCCc2ccccc2)ccc1O (centres unmarked) [salmeterol xinafoate]
Crystalline salmeterol xinafoate as obtained from ethanol/tert.butylmethylether, before micronisation
  compacted bulk volume: 0.27 g/mL
Micronised salmeterol xinafoate (air jet mill, grinding pressure 7.5 bar, feed pressure 8.0 bar)
  compacted bulk volume: 0.19 g/mL
